Results as given in paper PMC13372681, “A natural depsipeptide antibiotic binds the E-site of the bacterial ribosome” (Nature, 2026).
Values after ≈ are worked out from the molar mass of the structure shown. Where two headings read alike, the source gives them in different places. Where a SMILES comes first, the peptide text is derived from it. Bridges are numbered along the chain shown (N, C = ends). [ ]: non-standard residue; d: D form. dOrn = NCCC[C@@H](N)C(=O)O

Columns and labels:
[1] = test system: E. coli ΔtolC ΔbamB; details: broth microdilution
[2] = test system: M. bovis BCG Pasteur ATCC 35734; details: Middlebrook 7H9 + 10% OADC + 0.05% Tween-80
[3] = test system: Bacillus subtilis 168
[4] = test system: S. aureus ATCC 29213
[5] = test system: M. tuberculosis H37Ra; details: Middlebrook 7H9 + 10% OADC + 0.05% Tween-80
[6] = test system: E. coli C1508; details: broth microdilution, MDR clinical isolate
[7] = test system: S. aureus USA 300; details: USA 300
[8] = test system: E. coli ribosome; assay: Translocation assay; format: biochemical; details: 250 μM negamycin; pre-translocation complex, toeprint read-out
Procedure: In vitro translocation assay was carried out using the model mRNA MFK (Supplementary Table 9) as described. The mRNA was prepared by in vitro transcription of a PCR product amplified using the primers MF_F1, MF_F2, and MF_R (Supplementary Table 8). A 4.5 μl reaction containing 1 μM E. coli ribosomes, 0.5 μM mRNA, 1 μM tRNAi^Met, 0.5 μM radiolabelled NV1 primer (Supplementary Table 8), 2 U μl^−1 RiboLock RNase Inhibitor (Thermo), and antibiotic tested (50 μM MKM or 250 μM negamycin) in pure system buffer (PSB; 9 mM Mg(CH3COO)2, 5 mM K3PO4, 95 mM potassium glutamate, 5 mM NH4Cl, 0.5 mM CaCl2, 1 mM spermidine, 8 mM putrescine, 1 mM dithiothreitol, pH 7.3)[90] was incubated for 20 min at 37 °C. Then N-acetyl-Phe-N-tRNA^Phe (ref. [91]), in which amino acid is attached to the A3′ hydroxyl of the tRNA via an amide bond, was added to the final concentration of 2 μM followed by 10 min incubation at 37 °C. After addition of the E. coli EF-G and GTP to the final concentrations of 0.2 μM and 533 μM, respectively and incubation for 5 min at 30 °C, 1 µl of the mixture of AMV reverse transcriptase (Roche) and dNTPs (2.1 U/µl AMV reverse transcriptase and 2 mM dNTPs in PSB) was added, and the reactions were incubated for another 5 min at 30 °C. […]

SMILES	MIC ([1]; Ca+ MHB Medium) [µg/mL]	MIC ([1]; MOPS Minimal Medium) [µg/mL]	MIC ([1]; RPMI Medium) [µg/mL]	MIC [2] [µg/mL]	MIC [3] [µg/mL]	MIC [4] [µg/mL]	MIC [5] [µg/mL]	MIC ([6]; Ca+ MHB Medium) [µg/mL]	MIC ([6]; MOPS Minimal Medium) [µg/mL]	MIC ([6]; RPMI Medium) [µg/mL]	MIC [7] [µg/mL]	inhibition of EF-G-dependent translocation [8]
C[C@@H](O)[C@@H]1NC(=O)[C@@H](CCCNC(=N)N)NC(=O)[C@@H](CCCNC(=N)N)NC(=O)[C@@H](CC(N)=O)NC(=O)[C@@H](NC(=O)[C@@H](Cc2ccccc2)NC(=O)[C@@H](CCCNC(=N)N)NC(=O)[C@H](N)CCCNC(=N)N)[C@@H](C)OC(=O)[C@H](Cc2c[nH]cn2)NC1=O [MKM-B] (H-[dR][dR][dF]T[dN][dR][dR]TH; ester 4-C)	4 (≈ 3.26 µM)	1 (≈ 0.816 µM)	1 (≈ 0.816 µM)	0.25	32 (≈ 26.1 µM)	32 (≈ 26.1 µM)	0.25	16 (≈ 13.1 µM)	4 (≈ 3.26 µM)	4 (≈ 3.26 µM)	64 (≈ 52.2 µM)	
C[C@@H](O)[C@@H]1NC(=O)[C@@H](CCCNC(=N)N)NC(=O)[C@@H](CCCNC(=N)N)NC(=O)[C@@H](CC(N)=O)NC(=O)[C@@H](NC(=O)[C@@H](Cc2ccccc2)NC(=O)[C@@H](CCCN)NC(=O)[C@@H](CCCNC(=N)N)NC(=O)[C@@H](N)CCCNC(=N)N)[C@@H](C)OC(=O)[C@H](Cc2c[nH]cn2)NC1=O [MKM-E] (H-R[dR][dOrn][dF]T[dN][dR][dR]TH; ester 5-C; N-terminus assumed)	2 (≈ 1.49 µM)	0.5 (≈ 0.373 µM)	<0.5	1	32 (≈ 23.9 µM)	32 (≈ 23.9 µM)	1	8 (≈ 5.97 µM)	1 (≈ 0.747 µM)	1 (≈ 0.747 µM)	16 (≈ 11.9 µM)	
CN(CC(=O)O)NC(=O)C[C@H](N)C[C@@H](O)CN [negamycin]												notably inhibited
